The source made the active and inactive calls. The calls are words filed in the database; no cut-off is given here.
Tests used:
ECa-109 cell line [1] = test: Induction of apoptosis in human EC109 cells assessed as early apoptotic cells at 10 uM after 12 hrs by annexin V-FITC/propidium iodide staining-based flow cytometric analysis (reference value: 6.1%); assay type: functional
[2] = Cell cycle arrest in human EC109 cells assessed as accumulation at G2/M phase at 2.5 uM after 24 hrs by propidium iodide staining-based flow cytometric analysis (reference value: 6.31%); assay type: functional; details: ECa-109
ECa-109 cell line [3] = test: Induction of apoptosis in human EC109 cells assessed as late apoptotic cells at 10 uM after 12 hrs by annexin V-FITC/propidium iodide staining-based flow cytometric analysis (reference value: 1.4%); assay type: functional
[4] = Upregulation of p53 protein expression in human EC109 cells at 5 to 10 uM after 24 hrs by Western blot analysis; assay type: functional, cell-based; details: ECa-109
[5] = Cell cycle arrest in human EC109 cells assessed as accumulation at G2/M phase after 12 to 24 hrs by propidium iodide staining-based flow cytometric analysis; assay type: functional; details: ECa-109
ECa-109 cell line [6] = test: Induction of apoptosis in human EC109 cells assessed as damaged cells at 2.5 uM after 12 hrs by annexin V-FITC/propidium iodide staining-based flow cytometric analysis (reference value: 0.4%); assay type: functional
ECa-109 cell line [7] = test: Induction of apoptosis in human EC109 cells assessed as damaged cells at 40 uM after 24 hrs by annexin V-FITC/propidium iodide staining-based flow cytometric analysis (reference value: 0.1%); assay type: functional
ECa-109 cell line [8] = test: Induction of apoptosis in human EC109 cells assessed as early apoptotic cells at 10 uM after 24 hrs by annexin V-FITC/propidium iodide staining-based flow cytometric analysis (reference value: 3.8%); assay type: functional
ECa-109 cell line [9] = test: Induction of apoptosis in human EC109 cells assessed as live cells at 40 uM after 12 hrs by annexin V-FITC/propidium iodide staining-based flow cytometric analysis (reference value: 92.1%); assay type: functional
ECa-109 cell line [10] = test: Induction of apoptosis in human EC109 cells assessed as live cells at 20 uM after 12 hrs by annexin V-FITC/propidium iodide staining-based flow cytometric analysis (reference value: 92.1%); assay type: functional
[11] = Selectivity ratio of IC50 for human L02 cells to IC50 for human SMMC7721 cells; assay type: cell-based, SMMC-7721; details: L02 cells versus SMMC7721 cells, read-out: Ratio IC50
[12] = Cytotoxicity against human EC109 cells assessed as growth inhibition after 72 hrs by MTT assay; assay type: functional, cell-based; details: ECa-109, 72 h

For `C[C@]12CC[C@H](O)CC1=CC[C@@H]1[C@@H]2CC[C@]2(C)c3nc4ncnn4c(-c4cccc(-c5c6c(nc7ncnn57)[C@@]5(C)CC[C@H]7[C@@H](CC=C8C[C@@H](O)CC[C@@]87C)[C@@H]5C6)c4)c3C[C@@H]12`, the Activity (ECa-109 cell line [1]) was 19.9%, the Activity [2] was 14.8% and the Activity (ECa-109 cell line [3]) was 23.4%. The Activity [4] was “Active”, the Activity [5] was “Dose-dependent effect” and the Activity (ECa-109 cell line [6]) was 1.7%. The Activity (ECa-109 cell line [7]) was 1.3%, the Activity (ECa-109 cell line [8]) was 24% and the Activity (ECa-109 cell line [9]) was 14.6%. For the same molecule, the Activity (ECa-109 cell line [10]) was 12.8%, the selectivity ratio [11] was 49 and the IC50 [12] was 2.36 µM.
